The subject of series [1] is ICR mice. The series is described as follows: Phenylquinone-induced writhing model in mice, KRS-6-98 study (writhes counted in following 10-15 minute period). It is filed as in vivo. Conditions: for Number of Writhings, Average / Number of Writhings, Individual / % Inhibition: 10-15 minute period; for Number of Writhings, Individual: individual mice; for % Inhibition: relative to vehicle group. Here is the method: Testing of compound KRS-6-98 was carried out under contract by MDS Pharma Services—Taiwan. The study was essentially the same as that set out in Examples 12 and 13, and was designed to evaluate the effect of the compound as an analgesic in the phenylquinone-induced writhing assay described in detail in Example 10 (Siegmund et al, 1957).
A serial two-fold dosage variance was used in the test, from 128 mg/kg to 1 mg/kg (8 doses in total). Twenty six groups of 3 male or female ICR mice weighing 22±2 g were employed. The variant doses of the test substance were administered intraperitoneally (IP). A vehicle of 2% Tween 80 in 0.9% NaCl was used for the intraperitoneal injection. The control group received the vehicle alone. […] A reduction of the number of writhes by 50% or more (≧50%) relative to the vehicle-treated group indicate a possible analgesic activity.

The target in a further series is T1, human κ-opiate receptor (Homo sapiens, UniProt P41145).
T1 construct: purchased MDS Pharma Services 260210
The experiment in a line: In vitro opiate receptor radioligand binding assay (MDS 260210). Conditions: test compound 10 μM, read-out: Percentage Inhibition of Radioligand Binding. Here is the method: (§1) To characterise the target specificity of the compounds, KRS-6-41, KRS-6-48 and KRS-6-51 were tested at a concentration of 10 μM for their ability to inhibit the binding of a radioligand to human δ-, κ-, or μ-opiate receptors in vitro using commercially available assays (MDS Pharma Services; assay catalogue numbers 260110, 260210 and 260410 respectively).

The target in a further series is T2, human μ-opiate receptor (Homo sapiens, UniProt P35372).
T2 construct: purchased MDS Pharma Services 260410
The experiment in a line: In vitro opiate receptor radioligand binding assay (MDS 260410). Conditions: test compound 10 μM, read-out: Percentage Inhibition of Radioligand Binding. Here is the method: as §1

For another series, the target named is T3, human δ-opiate receptor (Homo sapiens, UniProt P41143).
T3 construct: purchased MDS Pharma Services 260110
The experiment in a line: In vitro opiate receptor radioligand binding assay (MDS 260110). Conditions: test compound 10 μM, read-out: Percentage Inhibition of Radioligand Binding. As for the experimental part: as §1

Series [2] concerns ICR mice. The series is described as follows: Phenylquinone-induced writhing model in mice (writhes counted in following 5-10 minute period). Format: in vivo. The following applies: for No. of Writhings, Individual: individual mice; for % Inhibition: relative to vehicle group. Here is the method:
(§2) Testing on compound KRS-6-48 was carried out under contract by MDS Services—Taiwan Ltd. KRS-6-48 was evaluated for possible analgesic activity in the phenylquinone-induced writhing model in mice (Siegmund et al, 1957). A serial 2-fold dosage variance was used in the test, from 128 mg/kg to 1 mg/kg (8 doses in total). Groups of 3 male or female ICR mice weighing 22±2 g were employed. Variant doses (1, 2, 4, 8, 16, 32, 64 and 128 mg/kg) of test substances were administered intraperitoneally (IP). A vehicle of 2% Tween 80 in 0.9% NaCl was used for the intraperitoneal injection. The control group received vehicle alone. […] A reduction in the number of writhes by 50 percent or more (≧50%) relative to the vehicle-treated group indicated possible analgesic activity.
Testing on compounds KRS-6-41, KRS-6-51, and KRS-6-71 was also carried out under contract by MDS Services—Taiwan Ltd. The study was designed to evaluate the effects of the compounds as analgesics in the phenylquinone-induced writhing assay described in detail in Example 10 (Siegmund et al, 1957).
(§3) In each case, a serial 2-fold dosage variance was used in the test, from 128 mg/kg to 1 mg/kg (8 doses in total). Groups of 3 male or female ICR mice weighing 22±2 g were employed. Variant doses (1, 2, 4, 8, 16, 32, 64 and 128 mg/kg) of test substances were administered intraperitoneally (IP). A vehicle of 2% Tween 80 in 0.9% NaCl was used for the intraperitoneal injection. The control group received vehicle alone. […] A reduction in the number of writhes by 50 percent or more (≧50%) relative to the vehicle-treated group indicated possible analgesic activity.
On the technique in general: Writhing tests count abdominal constrictions after an irritant is injected.

The subject of series [3] is ICR mice. The series is described as follows: Deaths and adverse signs observed in writhing-study mice. It is filed as in vivo. As for the experimental part: as §2, §3
Series [4] concerns ICR mice. The series is described as follows: Straub tail behaviour (indicator of CNS activity) in writhing-study mice. The following applies: for Straub tail behaviour: any doses (1 to 128 mg/kg IP).

Values joined by “and” are separate entries in the source; they are usually repeats but may differ in a detail not shown here. Equal entries are not always repeated.

T2 sequence (P35372 whole entry): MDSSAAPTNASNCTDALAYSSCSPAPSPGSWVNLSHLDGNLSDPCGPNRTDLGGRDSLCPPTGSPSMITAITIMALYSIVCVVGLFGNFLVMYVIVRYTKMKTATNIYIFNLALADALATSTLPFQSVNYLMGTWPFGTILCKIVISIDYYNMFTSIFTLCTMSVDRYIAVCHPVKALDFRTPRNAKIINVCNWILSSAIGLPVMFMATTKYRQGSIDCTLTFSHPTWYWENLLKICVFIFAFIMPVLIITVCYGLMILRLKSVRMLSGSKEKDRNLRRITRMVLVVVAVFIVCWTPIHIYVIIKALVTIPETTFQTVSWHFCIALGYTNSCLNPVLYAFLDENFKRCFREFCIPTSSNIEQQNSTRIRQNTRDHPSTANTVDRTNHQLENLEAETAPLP
T3 sequence (P41143 whole entry): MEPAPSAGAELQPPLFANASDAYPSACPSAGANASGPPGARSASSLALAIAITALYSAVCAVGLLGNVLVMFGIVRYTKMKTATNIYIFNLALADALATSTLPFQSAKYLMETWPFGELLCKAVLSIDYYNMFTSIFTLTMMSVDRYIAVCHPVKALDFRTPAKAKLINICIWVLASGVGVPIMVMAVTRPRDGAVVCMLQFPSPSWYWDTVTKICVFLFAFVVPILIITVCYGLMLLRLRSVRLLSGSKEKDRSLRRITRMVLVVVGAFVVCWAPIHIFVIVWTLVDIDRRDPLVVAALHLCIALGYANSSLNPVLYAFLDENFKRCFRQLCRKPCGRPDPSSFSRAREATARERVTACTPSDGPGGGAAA
T1 sequence (P41145 whole entry): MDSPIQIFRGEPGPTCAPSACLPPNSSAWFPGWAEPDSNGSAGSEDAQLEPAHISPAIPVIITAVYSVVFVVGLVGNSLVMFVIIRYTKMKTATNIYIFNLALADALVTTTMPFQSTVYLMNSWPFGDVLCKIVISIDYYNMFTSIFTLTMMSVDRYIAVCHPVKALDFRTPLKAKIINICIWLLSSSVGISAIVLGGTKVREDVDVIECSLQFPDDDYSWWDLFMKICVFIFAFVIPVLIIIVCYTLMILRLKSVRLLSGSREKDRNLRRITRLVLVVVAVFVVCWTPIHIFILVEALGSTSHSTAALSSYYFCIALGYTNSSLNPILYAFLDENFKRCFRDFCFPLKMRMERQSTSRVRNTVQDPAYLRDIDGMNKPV

As for `CCC(=Nc1ccc(F)cc1)NCCCN1CC[C@]23c4c5ccc(O)c4O[C@H]2[C@@H](O)C=C[C@H]3[C@H]1C5` [KRS-6-98], the “Number of Writhings, Average” value in the series with ICR mice [1] (1 mg/kg IP) was 10; in the series with ICR mice [1] (2 mg/kg IP), 7; with ICR mice [1] (4 mg/kg IP) it was 7; in the series with ICR mice [1] (8 mg/kg IP), 5; with ICR mice [1] (16 mg/kg IP), 4; with ICR mice [1] (32 mg/kg IP), 0. Moreover, the “Number of Writhings, Average” value in the series with ICR mice [1] (64 mg/kg IP) and in the series on ICR mice [1] (128 mg/kg IP) was 0 throughout. Besides, the “Number of Writhings, Individual” value in the series on ICR mice [1] (1 mg/kg IP) is 12 and 10 and 8; in the series on ICR mice [1] (2 mg/kg IP), 7 (2×) and 6; with ICR mice [1] (4 mg/kg IP) it was 10 and 7 and 4; in the series on ICR mice [1] (8 mg/kg IP), 6 and 7 and 2; with ICR mice [1] (16 mg/kg IP), 3 and 6 and 4; in the series on ICR mice [1] (32 mg/kg IP), 0. In addition, the “Number of Writhings, Individual” value in the series on ICR mice [1] (64 mg/kg IP) and in the series on ICR mice [1] (128 mg/kg IP) was 0 in each case. For the same compound, the “% Inhibition” value in the series on ICR mice [1] (1 mg/kg IP) is given as 44%; in the series with ICR mice [1] (2 mg/kg IP), 61%; in the series on ICR mice [1] (4 mg/kg IP), 61%; in the series with ICR mice [1] (8 mg/kg IP), 72%; in the series on ICR mice [1] (16 mg/kg IP), 78%; in the series on ICR mice [1] (32 mg/kg IP), 100%. The “% Inhibition” value in the series on ICR mice [1] (64 mg/kg IP) and with ICR mice [1] (128 mg/kg IP) was 100% throughout. In addition, the “analgesic activity in writhing model (in words)” value with ICR mice [1] (at all dose levels from 128 down to 2 mg/kg IP) was “significant activity”.

With `CC(=N)NCCCN1CC[C@]23c4c5ccc(O)c4O[C@H]2[C@@H](O)C=CC3[C@H]1C5` (stereo partly drawn) [KRS-6-41, (5α,6α)-7,8-didehydro-4,5-epoxy-17-(3-acetamidinopropyl)morphinan, 3,6-diol], the inhibition at 10 µM is 58% on human κ-opiate receptor, 97% at human μ-opiate receptor and 68% at human δ-opiate receptor. The “No. of Writhings, Average” value is on record as 14 in the series on ICR mice [2] (1 mg/kg IP); 14 in the series with ICR mice [2] (2 mg/kg IP); 12 with ICR mice [2] (4 mg/kg IP); 10 in the series with ICR mice [2] (8 mg/kg IP); 9 with ICR mice [2] (16 mg/kg IP); 8 with ICR mice [2] (32 mg/kg IP). Moreover, the “No. of Writhings, Individual” value in the series with ICR mice [2] (1 mg/kg IP) is 12 and 15 and 14; in the series on ICR mice [2] (2 mg/kg IP) it was 14 and 6 and 22; in the series on ICR mice [2] (4 mg/kg IP) it was 14 and 8 and 15; with ICR mice [2] (8 mg/kg IP), 6 and 10 and 14; in the series with ICR mice [2] (16 mg/kg IP), 5 and 16 and 6; in the series on ICR mice [2] (32 mg/kg IP) it was 4 and 10 and 11. For the same compound, the “No. of Writhings, Individual” value in the series with ICR mice [2] (64 mg/kg IP) is 4 and 14 and died; in the series on ICR mice [2] (128 mg/kg IP) it was “died”. Also, the “% Inhibition” value in the series with ICR mice [2] (1 mg/kg IP) came to 0%; in the series with ICR mice [2] (2 mg/kg IP) it was 0%; with ICR mice [2] (4 mg/kg IP), 8%; in the series on ICR mice [2] (8 mg/kg IP) it was 23%; in the series with ICR mice [2] (16 mg/kg IP), 31%; with ICR mice [2] (32 mg/kg IP), 38%. The “inhibition of writhing (in words)” value with ICR mice [2] (at doses of 32, 16, 8 and 4 mg/kg IP) is recorded as “a moderate level of inhibition of writhing”. The test animals died is 1 of 3 with ICR mice [3] (64 mg/kg IP) and 3 of 3 in the series with ICR mice [3] (128 mg/kg IP). Further, in the series on ICR mice [4], the Straub tail behaviour entry is reported as “None exhibited Straub tail behaviour”.

As for `CN1CC[C@]23c4c5ccc(O)c4O[C@H]2[C@@H](O)C=C[C@H]3[C@H]1C5` [Morphine, reference compound], in the series on ICR mice [2] (3 mg/kg IP), the “No. of Writhings, Average” value was 0; the “No. of Writhings, Individual” value came to 0; the “% Inhibition” value is 100%. Further, the “test animals exhibiting Straub tail phenomenon” value in the series on ICR mice [4] (3 mg/kg IP) was 2 of 3.

For the compound `CCC(=Nc1ccccc1)NCCCN1CC[C@]23c4c5ccc(O)c4O[C@H]2[C@@H](O)C=CC3[C@H]1C5` (stereo partly drawn) [KRS-6-48, (5α,6α)-7,8-didehydro-4,5-epoxy-17-((N-phenylpropionamidino)-propyl)morphinan, 3,6-diol], the inhibition at 10 µM on human κ-opiate receptor came out at 48%; at human μ-opiate receptor, 97%; on human δ-opiate receptor it was 29%. In addition, the “No. of Writhings, Average” value with ICR mice [2] (1 mg/kg IP) turned out to be 14; with ICR mice [2] (2 mg/kg IP), 13; in the series on ICR mice [2] (4 mg/kg IP), 9; with ICR mice [2] (8 mg/kg IP) it was 7; in the series on ICR mice [2] (16 mg/kg IP), 6; in the series with ICR mice [2] (32 mg/kg IP), 1. The “No. of Writhings, Average” value in the series with ICR mice [2] (64 mg/kg IP) and in the series on ICR mice [2] (128 mg/kg IP) was 0 throughout. The “No. of Writhings, Individual” value in the series on ICR mice [2] (1 mg/kg IP) was 10 and 20 and 13; with ICR mice [2] (2 mg/kg IP) it was 8 and 20 and 10; in the series with ICR mice [2] (4 mg/kg IP), 10 and 8 and 9; in the series with ICR mice [2] (8 mg/kg IP) it was 12 and 4 and 5; in the series with ICR mice [2] (16 mg/kg IP), 1 and 13 and 4; in the series with ICR mice [2] (32 mg/kg IP) it was 0 and 1 (2×). The “No. of Writhings, Individual” value in the series on ICR mice [2] (64 mg/kg IP) and in the series with ICR mice [2] (128 mg/kg IP) was 0 in each case. In addition, the “% Inhibition” value in the series on ICR mice [2] (1 mg/kg IP) is recorded as 0%; with ICR mice [2] (2 mg/kg IP), 0%; with ICR mice [2] (4 mg/kg IP), 31%; with ICR mice [2] (8 mg/kg IP), 46%; with ICR mice [2] (16 mg/kg IP), 54%; in the series with ICR mice [2] (32 mg/kg IP), 92%. Also, the “% Inhibition” value in the series on ICR mice [2] (64 mg/kg IP) and with ICR mice [2] (128 mg/kg IP) was 100% in each case. For the same compound, the “analgesic activity in writhing model (in words)” value in the series on ICR mice [2] (at doses of 128, 64, 32 and 16 mg/kg IP) is given as “Very significant activity”. Moreover, the Straub tail behaviour result in the series with ICR mice [4] is “did not exhibit Straub tail behaviour”.

A word on the % Inhibition: it is the change of the read-out against control, counted positive when it falls. As usually defined, the inhibition is the relative decrease from the control value, in per cent.

These data come from US20060111381A1, “Amidine compounds” (priority 2002, published 2006).
